For assay [1], the target named is T1, Neuronal acetylcholine receptor; alpha4/beta2 (Rattus norvegicus, UniProt P09483+P12390). Briefly: Inhibition of [3H]nicotine binding to Nicotinic acetylcholine receptor alpha4-beta2 of rat cortical membranes. The class given is cell membranes, Membrane.
For assay [2], the target named is Neuronal acetylcholine receptor subunit alpha-7 (Rattus norvegicus, UniProt Q05941). Briefly: Inhibition of [3H]-BTX binding to Nicotinic acetylcholine receptor alpha-7 of rat hippocampal membranes. It is filed as cell membranes, Membrane.
Assay [3] addresses T1, Neuronal acetylcholine receptor; alpha4/beta2. Briefly: Inhibition of [3H]cytisine binding to Nicotinic acetylcholine receptor alpha4-beta2 of rat cortical membranes. The class given is cell membranes, Membrane.
For a further assay, the species on record is Mus musculus. Briefly: Effective concentration in antinociception activity in mouse tail flick test. The class given is functional, organism-based.
Assay [4] has as its target T1, Neuronal acetylcholine receptor; alpha4/beta2. Briefly: Inhibition of [3H]epibatidine binding to Nicotinic acetylcholine receptor alpha4-beta2 of rat cortical membranes. The class given is cell membranes, Membrane.

Chain of Neuronal acetylcholine receptor subunit alpha-7 (Q05941 whole entry): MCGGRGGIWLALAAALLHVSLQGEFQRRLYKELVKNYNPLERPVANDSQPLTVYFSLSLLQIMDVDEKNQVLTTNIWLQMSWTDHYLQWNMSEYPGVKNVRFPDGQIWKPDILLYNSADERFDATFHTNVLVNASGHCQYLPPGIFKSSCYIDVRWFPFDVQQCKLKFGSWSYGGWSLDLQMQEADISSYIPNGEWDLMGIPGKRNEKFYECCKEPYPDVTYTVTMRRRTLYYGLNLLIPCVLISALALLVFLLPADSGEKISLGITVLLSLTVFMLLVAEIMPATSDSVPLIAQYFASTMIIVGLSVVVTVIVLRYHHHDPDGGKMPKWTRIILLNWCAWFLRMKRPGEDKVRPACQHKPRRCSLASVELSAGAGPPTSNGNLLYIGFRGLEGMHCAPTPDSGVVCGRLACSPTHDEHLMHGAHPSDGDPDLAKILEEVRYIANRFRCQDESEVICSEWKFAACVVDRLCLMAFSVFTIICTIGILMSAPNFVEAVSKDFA
T1 sequence (P09483 whole entry): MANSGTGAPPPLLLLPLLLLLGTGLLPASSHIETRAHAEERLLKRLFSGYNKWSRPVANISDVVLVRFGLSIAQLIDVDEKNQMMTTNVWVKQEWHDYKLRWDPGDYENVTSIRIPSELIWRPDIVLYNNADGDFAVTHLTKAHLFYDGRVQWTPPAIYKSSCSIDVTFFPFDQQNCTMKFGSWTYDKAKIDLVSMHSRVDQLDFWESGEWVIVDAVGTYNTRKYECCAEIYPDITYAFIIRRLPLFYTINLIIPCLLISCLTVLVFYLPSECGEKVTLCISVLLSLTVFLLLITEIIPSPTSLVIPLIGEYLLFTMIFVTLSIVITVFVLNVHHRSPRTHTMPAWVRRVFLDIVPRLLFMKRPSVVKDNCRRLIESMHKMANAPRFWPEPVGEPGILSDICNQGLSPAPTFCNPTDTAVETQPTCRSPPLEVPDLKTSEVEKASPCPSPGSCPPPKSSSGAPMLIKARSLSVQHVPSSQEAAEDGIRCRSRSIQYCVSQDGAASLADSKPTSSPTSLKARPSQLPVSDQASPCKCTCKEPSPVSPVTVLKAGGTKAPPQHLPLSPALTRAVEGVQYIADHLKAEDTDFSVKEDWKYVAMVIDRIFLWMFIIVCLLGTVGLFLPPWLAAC
T1 sequence (P12390 whole entry): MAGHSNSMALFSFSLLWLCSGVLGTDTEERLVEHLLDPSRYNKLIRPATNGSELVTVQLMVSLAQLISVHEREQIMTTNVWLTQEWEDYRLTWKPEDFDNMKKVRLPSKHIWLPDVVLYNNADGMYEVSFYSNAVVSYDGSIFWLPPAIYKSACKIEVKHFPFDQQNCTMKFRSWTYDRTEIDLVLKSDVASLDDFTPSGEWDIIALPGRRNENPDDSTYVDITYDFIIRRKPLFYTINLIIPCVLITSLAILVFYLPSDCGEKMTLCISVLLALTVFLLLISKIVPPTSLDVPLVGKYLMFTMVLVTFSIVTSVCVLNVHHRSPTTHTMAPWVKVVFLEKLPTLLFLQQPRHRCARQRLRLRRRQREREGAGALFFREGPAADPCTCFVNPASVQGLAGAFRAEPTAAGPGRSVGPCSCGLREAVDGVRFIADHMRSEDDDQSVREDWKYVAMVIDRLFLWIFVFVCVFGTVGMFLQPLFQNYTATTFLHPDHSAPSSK

On to `Clc1ccc([C@@H]2CC3CC2CN3)cn1` (stereo not given in full), for which the Ki in assay [1] was 0.05 nM; in assay [2] it was 6.3 nM.

As for `Clc1ccc(C2CC3CNC32)cn1` (stereo not given), in assay [3], affinity was put at a Ki of 3.9 nM. This counts as single-digit nanomolar. In the case of `Clc1ccc(C2CC3CNC2C3)cn1` (stereo not given), the Ki is > 38 nM in assay [1], 1600 nM in assay [2] and 6.6 nM in assay [3]. `Clc1ccc(C2CC3CCCCC2N3)cn1` (stereo in doubt; 17): affinity in assay [1] was put at a Ki of 1.25 nM. In assay [1], `Clc1ccc(C2CC3CCCCC2N3)cn1` (stereo in doubt; 16 (+)) came in with a Ki of 0.13 nM. As for `Clc1ccc([C@@H]2CC3CNC2C3)cn1` (stereo not given in full), the Ki in assay [1] stood at 0.04 nM; in assay [2], 3.9 nM; in assay [3] it was 0.03 nM.

Molecule `Clc1ccc(C2CC3CCC2N3)cn1` (stereo not given) [EPIBATIDINE] came in with an EC50 in the assay listed under Mus musculus of 0.01 mg/kg. As for `Clc1ccc(C2CC3NCC32)cn1` (stereo not given), the affinity in assay [3], expressed as Ki, was 5 nM. As for `Clc1ccc(C2CC3CC2CN3)cn1` (stereo not given), the Ki was > 38 nM in assay [1], 3300 nM in assay [2] and 30 nM in assay [3].

The molecule `Clc1ccc(C2CC3CCCCC2N3)cn1` (single isomer, unassigned; (-)) gave a Ki in assay [1] of 0.35 nM. This counts as sub-nanomolar.

`Clc1ccc(C2CCC3CCC2N3)cn1` (stereo not given) registered a Ki in assay [4] of 1.6 nM. For `Clc1ccc(C2CC3CCC2NC3)cn1` (stereo not given), in the assay filed under Mus musculus, the EC50 is 0.04 mg/kg. For the same molecule, the Ki in assay [3] is 0.47 nM.

Values taken from ChEMBL document CHEMBL1137057 (Bioorg Med Chem Lett, 2004).
